Measured values reported in PubChem BioAssay AID248 (DTP/NCI, 2004).
“And” between values parts separate entries of the source, which are not always exact repeats. Identical values can stand only once. Toxic doses and inconclusive results are not listed. Rule as the data show it: active = T/C of 150% or more; inactive = T/C below 125%.

System: L1210 leukemia ip in BDF1 mice, survival T/C
Assay: NCI In Vivo Anticancer Drug Screen. Data for tumor model L1210 Leukemia (intraperitoneal) in B6D2F1 (BDF1) mice
Conditions: endpoint: mean survival time, higher = longer survival
Procedure, shortened: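 Transplantable tumor model; survival measured in treated vs vehicle control mice. Value = treated/control.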

[1] = dose: 50.0 mg/kg/injection, schedule: Q01DX009 (ip), vehicle: saline
[2] = dose: 100.0 mg/kg/injection, schedule: Q01DX009 (ip), vehicle: saline
[3] = dose: 200.0 mg/kg/injection, schedule: Q01DX009 (ip), vehicle: saline
[4] = dose: 200.0 mg/kg/injection, schedule: Q04DX003 (ip), vehicle: saline
[5] = dose: 400.0 mg/kg/injection, schedule: Q04DX003 (ip), vehicle: saline
[6] = dose: 25.0 mg/kg/injection, schedule: Q01DX009 (ip), vehicle: saline with Tween-80
[7] = dose: 25.0 mg/kg/injection, schedule: Q04DX003 (ip), vehicle: saline with Tween-80
[8] = dose: 100.0 mg/kg/injection, schedule: Q01DX001 (ip), vehicle: saline
[9] = dose: 100.0 mg/kg/injection, schedule: Q04DX003 (ip), vehicle: Klucel (hydroxypropylcellulose) (HPC)
[10] = dose: 200.0 mg/kg/injection, schedule: Q01DX001 (ip), vehicle: saline
[11] = dose: 200.0 mg/kg/injection, schedule: Q04DX003 (ip), vehicle: Klucel (hydroxypropylcellulose) (HPC)
[12] = dose: 400.0 mg/kg/injection, schedule: Q01DX001 (ip), vehicle: saline
[13] = dose: 400.0 mg/kg/injection, schedule: Q04DX003 (ip), vehicle: Klucel (hydroxypropylcellulose) (HPC)
[14] = dose: 50.0 mg/kg/injection, schedule: Q01DX009 (ip), vehicle: saline with Tween-80
[15] = dose: 100.0 mg/kg/injection, schedule: Q01DX009 (ip), vehicle: saline with Tween-80
[16] = dose: 100.0 mg/kg/injection, schedule: Q04DX002 (ip), vehicle: saline with Tween-80
[17] = dose: 200.0 mg/kg/injection, schedule: Q01DX009 (ip), vehicle: saline with Tween-80
[18] = dose: 200.0 mg/kg/injection, schedule: Q04DX002 (ip), vehicle: saline with Tween-80
[19] = dose: 400.0 mg/kg/injection, schedule: Q01DX009 (ip), vehicle: saline with Tween-80
[20] = dose: 400.0 mg/kg/injection, schedule: Q04DX002 (ip), vehicle: saline with Tween-80
[21] = dose: 100.0 mg/kg/injection, schedule: Q04DX002 (ip), vehicle: saline
[22] = dose: 200.0 mg/kg/injection, schedule: Q04DX002 (ip), vehicle: saline
[23] = dose: 400.0 mg/kg/injection, schedule: Q04DX002 (ip), vehicle: saline
[24] = dose: 100.0 mg/kg/injection, schedule: Q01DX001 (ip), vehicle: carboxymethylcellulose (CMC)
[25] = dose: 200.0 mg/kg/injection, schedule: Q01DX001 (ip), vehicle: carboxymethylcellulose (CMC)
[26] = dose: 400.0 mg/kg/injection, schedule: Q01DX001 (ip), vehicle: carboxymethylcellulose (CMC)

Measured: T/C

CCCCCCCCNC(C(=O)c1ccc(Cl)cc1)c1ccc(Cl)cc1 (stereo unspecified)
inactive: [1] 92 % of control | [2] 91 % of control | dose: 100.0 mg/kg/injection, schedule: Q04DX003 (ip), vehicle: saline 98 % of control | [3] 97 % of control | [4] 102 % of control | [5] 90 % of control

Clc1ccc(-c2coc3cccc[n+]23)cc1
inactive: dose: 75.0 mg/kg/injection, schedule: Q01DX001 (ip), vehicle: other 100 % of control | dose: 150.0 mg/kg/injection, schedule: Q01DX001 (ip), vehicle: other 97 % of control | dose: 300.0 mg/kg/injection, schedule: Q01DX001 (ip), vehicle: other 97 % of control

O=[N+]([O-])c1cc[n+]([O-])cc1
inactive: dose: 6.25 mg/kg/injection, schedule: Q01DX009 (ip), vehicle: saline with Tween-80 98 % of control | dose: 6.25 mg/kg/injection, schedule: Q04DX003 (ip), vehicle: saline with Tween-80 96 % of control | dose: 12.5 mg/kg/injection, schedule: Q01DX009 (ip), vehicle: saline with Tween-80 96 % of control | dose: 12.5 mg/kg/injection, schedule: Q04DX003 (ip), vehicle: saline with Tween-80 96 % of control | [6] 91 % of control | [7] 95 % of control

COC(=O)c1ccc(/C=C/c2ccc(S(=O)(=O)F)cc2)cc1
inactive: dose: 100.0 mg/kg/injection, schedule: Q01DX001 (ip), vehicle: Klucel (hydroxypropylcellulose) (HPC) 91 % of control | dose: 200.0 mg/kg/injection, schedule: Q01DX001 (ip), vehicle: Klucel (hydroxypropylcellulose) (HPC) 91 % of control | dose: 400.0 mg/kg/injection, schedule: Q01DX001 (ip), vehicle: Klucel (hydroxypropylcellulose) (HPC) 97 % of control

O=c1n(-c2ccccc2)c(=O)n(-c2ccccc2)c(=O)n1-c1ccccc1
inactive: [8] 107 % of control | [9] 89 % of control | [10] 102 % of control | [11] 94 % of control | [12] 115 % of control | [13] 104 % of control

C=CC(=O)Oc1ccc([N+](=O)[O-])cc1
inactive: dose: 12.0 mg/kg/injection, schedule: Q01DX009 (ip), vehicle: saline 100 % of control | dose: 25.0 mg/kg/injection, schedule: Q01DX009 (ip), vehicle: saline 117 % of control | [1] 114 % of control | [4] 100 % of control | [5] 108 % of control

O=C1c2cccc3cccc(c23)C(=O)N1NCCO
inactive: dose: 100.0 mg/kg/injection, schedule: Q01DX009 (ip), vehicle: Klucel (hydroxypropylcellulose) (HPC) 93 % of control | dose: 200.0 mg/kg/injection, schedule: Q01DX009 (ip), vehicle: Klucel (hydroxypropylcellulose) (HPC) 89 % of control

CCCCCCCCCCCC(=O)NC(=S)Nc1ccccc1C(=O)OC
inactive: [6] 93 % of control | [14] 93 % of control | [15] 96 % of control and 92 % of control | [16] 102 % of control and 109 % of control | [17] 104 % of control and 86 % of control and 90 % of control | [18] 105 % of control and 89 % of control | [19] 94 % of control and 108 % of control | [20] 94 % of control and 88 % of control

O=C1OC(c2cccc(Cl)c2)=N/C1=C\c1cc(Br)ccc1O
inactive: [16] 89 % of control | [18] 96 % of control | [20] 89 % of control

CN(C)N=Nc1c(Br)cc(Br)cc1Br
inactive: [14] 87 % of control | [15] 102 % of control | [17] 105 % of control

CCCOCCOCCOC(C)Oc1cc(OC)ccc1OC (stereo unspecified)
inactive: [21] 93 % of control | [22] 111 % of control | [23] 96 % of control

O=C(O)c1ccc(S(=O)(=O)F)c(Cl)c1
inactive: [15] 100 % of control | [17] 102 % of control | [19] 89 % of control

N#CC(C(N)=O)c1ccccc1 (stereo unspecified)
inactive: [6] 86 % of control | [7] 99 % of control | [14] 94 % of control | dose: 50.0 mg/kg/injection, schedule: Q04DX003 (ip), vehicle: saline with Tween-80 100 % of control | [15] 90 % of control | dose: 100.0 mg/kg/injection, schedule: Q04DX003 (ip), vehicle: saline with Tween-80 98 % of control and 100 % of control

NC(=O)C1CCC(=O)N1 (stereo unspecified)
inactive: [2] 93 % of control | [21] 104 % of control | [3] 101 % of control | [22] 98 % of control | dose: 400.0 mg/kg/injection, schedule: Q01DX009 (ip), vehicle: saline 93 % of control | [23] 91 % of control

COC(=O)C1CC2CCC1O2 (stereo unspecified)
inactive: dose: 100.0 mg/kg/injection, schedule: Q01DX009 (ip), vehicle: carboxymethylcellulose (CMC) 100 % of control | dose: 200.0 mg/kg/injection, schedule: Q01DX009 (ip), vehicle: carboxymethylcellulose (CMC) 98 % of control | dose: 400.0 mg/kg/injection, schedule: Q01DX009 (ip), vehicle: carboxymethylcellulose (CMC) 94 % of control

CC1(C)CCC(C)(C)C2CC3C(CC21)C(C)(C)CCC3(C)C (stereo unspecified)
inactive: [8] 109 % of control | [10] 112 % of control | [12] 100 % of control

CC(=O)Nc1ccc2c(c1)C(S)c1ccccc1-2 (stereo unspecified)
inactive: [24] 112 % of control | [25] 114 % of control | [26] 101 % of control

S=C(NCc1ccccc1)C(=S)NCc1ccccc1
inactive: [9] 105 % of control | [11] 98 % of control

COC(=O)c1ccc(OCc2ccccc2)cc1
inactive: [9] 103 % of control | [11] 100 % of control | [13] 92 % of control

CC(N)C(=O)NC(CC(N)=O)C(=O)O (stereo unspecified)
inactive: dose: 25.0 mg/kg/injection, schedule: Q04DX002 (ip), vehicle: saline 95 % of control | dose: 50.0 mg/kg/injection, schedule: Q01DX001 (ip), vehicle: carboxymethylcellulose (CMC) 97 % of control | dose: 50.0 mg/kg/injection, schedule: Q04DX002 (ip), vehicle: saline 100 % of control | [24] 97 % of control | [21] 106 % of control | [25] 97 % of control | [26] 95 % of control

COC(=O)C1=C(N)OC(C)(C)C1c1ccc(Cl)cc1 (stereo unspecified)
inactive: [8] 100 % of control | [10] 94 % of control | [12] 97 % of control

ICC1CCC(CI)CC1 (stereo unspecified)
inactive: [24] 102 % of control | [25] 102 % of control | [26] 102 % of control

Cc1cccc(N2P(N(C)C)N(c3cccc(C)c3)P2(=O)N(C)C)c1 (stereo unspecified)
inactive: dose: 100.0 mg/kg/injection, schedule: Q04DX002 (ip), vehicle: Klucel (hydroxypropylcellulose) (HPC) 97 % of control | dose: 200.0 mg/kg/injection, schedule: Q04DX002 (ip), vehicle: Klucel (hydroxypropylcellulose) (HPC) 111 % of control | dose: 400.0 mg/kg/injection, schedule: Q04DX002 (ip), vehicle: Klucel (hydroxypropylcellulose) (HPC) 94 % of control

CCCCCCCN(CCCCCCC)C(=O)N(CC)CC
inactive: [16] 93 % of control | [18] 93 % of control | [20] 97 % of control

NC(N)=N/N=C(/c1ccccc1)c1ccc(Cl)cc1
inactive: dose: 15.0 mg/kg/injection, schedule: Q01DX Z (ip), vehicle: saline 90 % of control | dose: 30.0 mg/kg/injection, schedule: Q01DX Z (ip), vehicle: saline 92 % of control | dose: 60.0 mg/kg/injection, schedule: Q01DX Z (ip), vehicle: saline 97 % of control | dose: 60.0 mg/kg/injection, schedule: Q01DX Z (oral), vehicle: saline 95 % of control | dose: 120.0 mg/kg/injection, schedule: Q01DX Z (ip), vehicle: saline 110 % of control | dose: 120.0 mg/kg/injection, schedule: Q01DX Z (oral), vehicle: saline 92 % of control | dose: 240.0 mg/kg/injection, schedule: Q01DX Z (ip), vehicle: saline 108 % of control | dose: 240.0 mg/kg/injection, schedule: Q01DX Z (oral), vehicle: saline 107 % of control | dose: 480.0 mg/kg/injection, schedule: Q01DX010 (oral), vehicle: saline 96 % of control | dose: 960.0 mg/kg/injection, schedule: Q01DX010 (oral), vehicle: saline 91 % of control
